According to patent US12655116B2, “Substituted isophthalic acid diamides” (Bayer Aktiengesellschaft, priority 2020, dated 2026):

What was measured:
[1] = system: HORMU; assay: Pre-emergence herbicidal action against HORMU; format: in vivo, Hordeum murinum; details: Hordeum murinum, 504 h, pre-emergence
How it was run: (§1)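 Seeds sown in sandy loam, soil-covered; compound sprayed on soil surface pre-emergence. Application: WP/EC, 600–800 l/ha, 0.2% wetting agent. Readout: visual % damage at 3 weeks.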

[2] = system: ECHCG; assay: Pre-emergence herbicidal action against ECHCG; format: in vivo, Echinochloa crus-galli; details: Echinochloa crus-galli, 504 h
How it was run: as §1

[3] = system: LOLRI; assay: Post-emergence herbicidal action against LOLRI; format: in vivo, Lolium rigidum; details: Lolium rigidum, 504 h, dosage 80 g/ha
How it was run: (§2)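 Percent herbicidal action is rated by eye about 3 weeks after treatment against untreated controls, where 100% means dead plants and 0% means like controls. Plants in sandy loam are sprayed on green parts at the one-leaf stage with aqueous WP or EC preparations at 600 to 800 l/ha plus 0.2% wetting agent.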

[4] = system: AMARE; assay: Post-emergence herbicidal action against AMARE; format: in vivo, Amaranthus retroflexus; details: Amaranthus retroflexus, 504 h, visual assessment about 3 weeks after treatment, 100% = plants have died, 0% = like control plants
How it was run: as §2

[5] = system: ECHCG; assay: Post-emergence herbicidal action against ECHCG; format: in vivo, Echinochloa crus-galli; details: Echinochloa crus-galli, 504 h
How it was run: as §2

[6] = system: POLCO; assay: Pre-emergence herbicidal action against POLCO; format: in vivo, Polygonum convolvulus; details: Fallopia convolvulus, 504 h, dosage 320 g/ha
How it was run: as §1

[7] = system: ALOMY; assay: Post-emergence herbicidal action against ALOMY; format: in vivo, Alopecurus myosuroides; details: Alopecurus myosuroides, 504 h, visual assessment about 3 weeks after treatment vs untreated controls
How it was run: as §2

[8] = system: AMARE; assay: Pre-emergence herbicidal action against AMARE; format: in vivo, Amaranthus retroflexus; details: Amaranthus retroflexus, 504 h, 100% = plants have died, 0% = like control plants
How it was run: as §1

[9] = system: AVEFA; assay: Post-emergence herbicidal action against AVEFA; format: in vivo, Avena fatua; details: Avena fatua, 504 h, visual assessment about 3 weeks after treatment, 100% = plants have died, 0% = like control plants
How it was run: as §2

[10] = system: SETVI; assay: Pre-emergence herbicidal action against SETVI; format: in vivo, Setaria viridis; details: Setaria viridis, 504 h
How it was run: as §1

[11] = system: AVEFA; assay: Pre-emergence herbicidal action against AVEFA; format: in vivo, Avena fatua; details: Avena fatua, 504 h, pre-emergence
How it was run: as §1

[12] = system: SETVI; assay: Post-emergence herbicidal action against SETVI; format: in vivo, Setaria viridis; details: Setaria viridis, 504 h
How it was run: as §2

[13] = system: VERPE; assay: Pre-emergence herbicidal action against VERPE; format: in vivo, Veronica persica; details: Veronica persica, 504 h, dosage 320 g/ha
How it was run: as §1

[14] = system: VIOTR; assay: Post-emergence herbicidal action against VIOTR; format: in vivo, Viola tricolor; details: Viola tricolor, 504 h
How it was run: as §2

[15] = system: STEME; assay: Pre-emergence herbicidal action against STEME; format: in vivo, Stellaria media; details: Stellaria media, 504 h
How it was run: as §1

[16] = system: HORMU; assay: Post-emergence herbicidal action against HORMU; format: in vivo, Hordeum murinum; details: Hordeum murinum, 504 h
How it was run: as §2

[17] = system: VIOTR; assay: Pre-emergence herbicidal action against VIOTR; format: in vivo, Viola tricolor; details: Viola tricolor, 504 h
How it was run: as §1

[18] = system: VERPE; assay: Post-emergence herbicidal action against VERPE; format: in vivo, Veronica persica; details: Veronica persica, 504 h, 80 g/ha
How it was run: as §2

[19] = system: MATIN; assay: Pre-emergence herbicidal action against MATIN; format: in vivo, Matricaria inodora; details: Tripleurospermum inodorum, 504 h
How it was run: as §1

[20] = system: STEME; assay: Post-emergence herbicidal action against STEME; format: in vivo, Stellaria media; details: Stellaria media, 504 h
How it was run: as §2

[21] = system: POLCO; assay: Post-emergence herbicidal action against POLCO; format: in vivo, Polygonum convolvulus; details: Fallopia convolvulus, 504 h, dosage 80 g/ha
How it was run: as §2

[22] = system: MATIN; assay: Post-emergence herbicidal action against MATIN; format: in vivo, Matricaria inodora; details: Tripleurospermum inodorum, 504 h
How it was run: as §2

[23] = system: ALOMY; assay: Pre-emergence herbicidal action against ALOMY; format: in vivo, Alopecurus myosuroides; details: Alopecurus myosuroides, 504 h, pre-emergence
How it was run: as §1

[24] = 320 g/ha, scored visually after 3 weeks, 100% = plants have died, 0% = like control plants

With `CNC(=O)c1c(C(F)(F)F)ccc(C(=O)Nc2nnc(C)o2)c1Cl` [Example 6-116] the pest or weed control at 80 g/ha ([1]; 80 g/ha) was 90%, the pest or weed control at 320 g/ha ([1]; 320 g/ha) was 100% and the pest or weed control at 80 g/ha ([2]; 80 g/ha) was 100%. For the same compound, the pest or weed control at 320 g/ha ([2]; 320 g/ha) was 100%, the pest or weed control at 80 g/ha [3] was 90% and the pest or weed control at 20 g/ha ([4]; 20 g/ha) was 100%. The pest or weed control at 80 g/ha ([4]; 80 g/ha) was 100%, the pest or weed control at 20 g/ha ([5]; dosage 20 g/ha) was 100% and the pest or weed control at 80 g/ha ([5]; dosage 80 g/ha) was 100%. It also gave a pest or weed control at 320 g/ha [6] of 90%, a pest or weed control at 20 g/ha ([7]; dosage 20 g/ha) of 80% and a pest or weed control at 80 g/ha ([7]; dosage 80 g/ha) of 100%. The pest or weed control at 20 g/ha ([8]; 20 g/ha, scored visually after 3 weeks vs untreated controls) was 100%, the pest or weed control at 80 g/ha ([8]; 80 g/ha, scored visually after 3 weeks vs untreated controls) was 100% and the pest or weed control at 320 g/ha ([8]; 320 g/ha, scored visually after 3 weeks) was 100%. The pest or weed control at 5 g/ha ([9]; 5 g/ha) was 100%, the pest or weed control at 20 g/ha ([9]; 20 g/ha) was 100% and the pest or weed control at 80 g/ha ([9]; 80 g/ha) was 100%. It also gave a pest or weed control at 80 g/ha ([10]; dosage 80 g/ha) of 100%, a pest or weed control at 320 g/ha ([10]; dosage 320 g/ha) of 100% and a pest or weed control at 80 g/ha ([11]; 80 g/ha) of 100%. For the same compound, the pest or weed control at 320 g/ha [11, 24] was 100%, the pest or weed control at 5 g/ha ([12]; dosage 5 g/ha) was 100% and the pest or weed control at 20 g/ha ([12]; dosage 20 g/ha) was 100%. It also gave a pest or weed control at 80 g/ha ([12]; dosage 80 g/ha) of 100%, a pest or weed control at 320 g/ha [13] of 80% and a pest or weed control at 20 g/ha ([14]; 20 g/ha) of 80%. For the same compound, the pest or weed control at 80 g/ha ([14]; 80 g/ha) was 100%, the pest or weed control at 20 g/ha ([15]; dosage 20 g/ha) was 90% and the pest or weed control at 80 g/ha ([15]; dosage 80 g/ha) was 100%. For the same compound, the pest or weed control at 320 g/ha ([15]; dosage 320 g/ha) was 100%, the pest or weed control at 20 g/ha ([16]; dosage 20 g/ha) was 90% and the pest or weed control at 80 g/ha ([16]; dosage 80 g/ha) was 100%. The pest or weed control at 80 g/ha ([17]; dosage 80 g/ha) was 100%, the pest or weed control at 320 g/ha ([17]; dosage 320 g/ha) was 100% and the pest or weed control at 80 g/ha [18] was 90%. For the same compound, the pest or weed control at 20 g/ha ([19]; dosage 20 g/ha) was 90%, the pest or weed control at 80 g/ha ([19]; dosage 80 g/ha) was 90% and the pest or weed control at 320 g/ha ([19]; dosage 320 g/ha) was 100%. It also gave a pest or weed control at 20 g/ha ([20]; 20 g/ha) of 100%, a pest or weed control at 80 g/ha ([20]; 80 g/ha) of 100% and a pest or weed control at 5 g/ha ([20]; dosage 5 g/ha) of 90%. For the same compound, the pest or weed control at 80 g/ha [21] was 80%, the pest or weed control at 5 g/ha ([22]; dosage 5 g/ha) was 80% and the pest or weed control at 20 g/ha ([22]; dosage 20 g/ha) was 90%. For the same compound, the pest or weed control at 80 g/ha ([22]; dosage 80 g/ha) was 100%, the pest or weed control at 80 g/ha ([23]; 80 g/ha, scored visually after 3 weeks vs untreated controls (100% = plants have died, 0% = like control plants)) was 100% and the pest or weed control at 320 g/ha [23, 24] was 100%.
